Measurements as given in patent USRE39071E1, “Anhydro-and isomer-a-21978c cyclic peptides” (Eli Lilly and Company, priority 1987, dated 2006).
Converted amounts (≈) assume the structure as drawn.

Columns and labels:
Staphylococcus aueus = assay: Experimental infection in mice, subcutaneous ED50; type: in vivo; settings: two doses
Method: (§1) The new derivatives of this invention have also shown in vivo antimicrobial activity against experimental bacterial infections. When two doses of test compound were administered to mice in experimental infections, the activity observed was measured as an ED50 value [effective dose in mg/kg to protect 50% of the test animals: see Warren Wick, et al., J. Bacteriol. 81, 233-235 (1961)].

Streptococcus pyogenes = assay: Experimental infection in mice, subcutaneous ED50; type: in vivo; settings: two doses
Method: as §1

Streptococcus pneumoniae = assay: Experimental infection in mice, subcutaneous ED50; type: in vivo; settings: two doses
Method: as §1

[1] = system: Haemophilus influenzae CL (ampicillin-sensitive strain); assay: Agar-dilution MIC; type: cell-based
From the text: (§2) Table I summarizes the minimal inhibitory concentrations (MIC's) at which the two illustrative compounds, anhydro-LY146032 and isomer-LY146032, inhibit certain organisms, as determined by standard agar-dilution assays.

[2] = system: Staphylacoccus epidermidis 222; type: cell-based
From the text: as §2

[3] = system: Staphylacoccus aureus V41 (penicillin-resistant strain); type: cell-based
From the text: as §2

[4] = system: Streptococcus pyogenes C203; type: cell-based
From the text: as §2

[5] = system: Streptococcus faecalis X66; type: cell-based
From the text: as §2

[6] = system: Staphylacoccus aureus XL1; type: cell-based
From the text: as §2

[7] = system: Staphylacoccus aureus X400 (methicillin-resistant strain); type: cell-based
From the text: as §2

[8] = system: Streptococcus faecalis 2041; type: cell-based
From the text: as §2

[9] = system: Haemophilus influenzae 76 (ampicillin-resistant strain); assay: Agar-dilution MIC; type: cell-based; parameters: unit not given beside the values
From the text: as §2

Row | MIC [1] | MIC [2] | MIC [3] | MIC [4] | MIC [5] | MIC [6] | MIC [7] | MIC [8] | MIC [9] | SMILES | Subcutaneous ED50 (Staphylococcus aueus) | Subcutaneous ED50 (Streptococcus pyogenes) | Subcutaneous ED50 (Streptococcus pneumoniae)
1 | — (>128) | 4 µg/mL (≈ 2.5 µM) | 4 µg/mL (≈ 2.5 µM) | 1 µg/mL (≈ 0.624 µM) | 64 µg/mL (≈ 39.9 µM) | 4 µg/mL (≈ 2.5 µM) | 8 µg/mL (≈ 4.99 µM) | 16 µg/mL (≈ 9.98 µM) | — (>128) | CCCCCCCCCC(=O)N[C@@H](Cc1c[nH]c2ccccc12)C(=O)N[C@@H](CC(N)=O)C(=O)N[C@@H](CC(=O)O)C(=O)N[C@@H]1C(=O)NCC(=O)N[C@@H](CCCN)C(=O)N[C@@H](CC(=O)O)C(=O)N[C@H](C)C(=O)N[C@H]2CC(=O)N(CC(=O)N[C@H](CO)C(=O)N[C@@H]([C@H](C)CC(=O)O)C(=O)N[C@@H](CC(=O)c3ccccc3N)C(=O)O[C@@H]1C)C2=O [Anhydro-LY146032] | 9.05 mg/kg | 1.15 mg/kg | 3.36 mg/kg
2 | —^f (>128) | 8 µg/mL (≈ 4.94 µM) | 8 µg/mL (≈ 4.94 µM) | 2 µg/mL (≈ 1.23 µM) | 128 µg/mL (≈ 79 µM) | 8 µg/mL (≈ 4.94 µM) | 8 µg/mL (≈ 4.94 µM) | 32 µg/mL (≈ 19.7 µM) | —^ (>128) | CCCCCCCCCC(=O)N[C@@H](Cc1c[nH]c2ccccc12)C(=O)N[C@@H](CC(N)=O)C(=O)N[C@@H](CC(=O)O)C(=O)N[C@@H]1C(=O)NCC(=O)N[C@@H](CCCN)C(=O)N[C@@H](CC(=O)O)C(=O)N[C@H](C)C(=O)N[C@H](C(=O)O)CC(=O)NCC(=O)N[C@H](CO)C(=O)N[C@@H]([C@H](C)CC(=O)O)C(=O)N[C@@H](CC(=O)c2ccccc2N)C(=O)O[C@@H]1C [Isomer-LY146032] | 10.68 mg/kg | <1.25 mg/kg | 3.40 mg/kg
